What was measured:
[1] = tested on: A375 Human Melanoma cell line; assay: In vivo fluorescence imaging biodistribution in subcutaneous tumor mice; settings: i.v. at day 14 post-tumor challenge; from 3 to 9-days after NCs injection
Protocol: A model of immunodepressed mice have been used to conduct this experiment. Female NSG mice (9 weeks old, Charles River) were challenged by subcutaneous (s.c). injection of A375 Human Melanoma cell line (1×10^6) cells on the right flank with a 23-gauge needle. Amphoteric ICG-NCs and cationic ICG-NCs were administered i.v. at day 14 post-tumor challenge. PBS and ICG free was injected to control groups. Fluorescence was monitoring by in vivo imaging system (IVIS; Perkin Elmer, Waltham, MA, USA) using excitation/emission wavelength of 780 nm/845 nm.

[2] = Acute toxicity analysis (haematological and biochemical parameters) after i.v. administration; set-up: species or system BALB/C mice; settings: mouse, in vivo, iv
Protocol: Encapsulated non-loaded NCS nanocapsules (cationic and amphoteric nanocapsules) were i.v. administered to female BALB/C mice (8 weeks old; Charles River) at three different doses. Blood and serum samples were obtained at 24 h post-administration for acute toxicity analysis (SBCV and SHCV, Universidad Autónoma de Barcelona).
Haematological parameters analysed in blood included white blood cells (WBC) count, red blood cells (RBC) count, haemoglobin (HGB), red blood cell specific volume (HCT), mean corpuscular volume (MCV), mean corpuscular haemoglobin (MCH), mean corpuscular haemoglobin concentration (MCHC), platelet (PLT), lymphocytes (LYMPH), monocytes (MONO), neutrophils (NEU), eosinophils (EO), and basophils (BASO).
Biochemical parameters detected in serum included albumin, alanine aminotransferase (ALT), aspartate aminotransferase (AST), total bilirubin levels (TBIL), creatinine (CREA), gamma-glutamyl transferase (GGT), potassium, total proteins, sodium, and urea.
Encapsulated or free R848 was i.v. administered to female BALB/C mice (8 weeks old; Charles River) at three different doses. Blood and serum samples were obtained at 24 h post-administration for acute toxicity analysis (SBCV and SHCV, Universidad Autónoma de Barcelona).

| Structure (SMILES) | fluorescence signal / accumulation in tumor locations [1] | biochemical parameters in serum with respect to untreated groups [2] | haematological parameters with respect to untreated groups [2] |
| --- | --- | --- | --- |
| CC1(C)C(/C=C/C=C/C=C/C=C2\N(CCCCS(=O)(=O)[O-])c3ccc4ccccc4c3C2(C)C)=[N+](CCCCS(=O)(=O)[O-])c2ccc3ccccc3c21.[Na+] [ICG, Indocyanine Green] | low |  |  |
| CCOCc1nc2c(N)nc3ccccc3c2n1CC(C)(C)O [Sample R848, Resiquimod] |  | No significant differences | No significant differences |

From US20240277617A1, “NANOTECHNOLOGICAL PLATFORM BASED ON POLYURETHANE/POLYUREA CHEMISTRY TO FURNISH WATER-OIL-WATER MULTI WALLED AND FUNCTIONALIZABLE NANOCAPSULES AND THEIR PREPARATION PROCESS” (ECOPOL TECH SL, priority 2021, published 2024)
